The record followed here is patent US9216973B2, “Insecticidal compounds” (Syngenta Participations AG, priority 2008, dated 2015).

Common to all, as to type: in vivo
In assay [1] the test system is Plutella xylostella (Diamond back moth). The assay can be described thus: Plutella xylostella larvae test on artificial diet. The conditions noted are these: for effect on mortality, feeding behavior, or growth regulation: same protocol, 200 ppm; for pest or weed control at 200 ppm: 144 h, 200 ppm (concentration in well 18 ppm), artificial diet, L2 larvae, larval mortality and growth regulation after 6 days. As to the method: (§1) This Example illustrates the insecticidal and acaricidal properties of compounds of formula (I). The tests were performed as follows:
(§2) Cotton leaf discs were placed on agar in a 24-well microtiter plate and sprayed with test solutions at an application rate of 200 ppm. After drying, the leaf discs were infested with 5 L1 larvae. The samples were checked for mortality, feeding behavior, and growth regulation 3 days after treatment (DAT). The following compound gave at least 80% control of Spodoptera littoralis: A1, A2, A5, A6, A7, A8, A10, A11, A12, A13, A14, A15, A16, A17, A18, A19, A21, A22, A23, A24, A25, A30, A31, A32, A33, A34, A35, A39, A40, A41 A42, A43, A44, A45, A46, A47, A48, A49, A50, A51, A53, A54, A55, A59, A60, A61, A62. Heliothis virescens (Tobacco budworm): Eggs (0-24 h old) were placed in 24-well microtiter plate on artificial diet and treated with test solutions at an application rate of 200 ppm (concentration in well 18 ppm) by pipetting. After an incubation period of 4 days, samples were checked for egg mortality, larval mortality, and growth regulation. The following compound gave at least 80% control of Heliothis virescens: A1, A2, A3, A4, A5, A6, A7, A8, A10, A11, A12, A13, A14, A15, A16, A18, A19, A21, A22, A24, A25, A30, A31, A32, A33, A34, A35, A37, A38, A39, A40, A42, A43, A44, A45, A46, A47, A48, A49, A50, A51, A55, AA57, A58, A59, A60, A61, A62. Plutella xylostella (Diamond back moth): 24-well microtiter plate (MTP) with artificial diet was treated with test solutions at an application rate of 200 ppm (concentration in well 18 ppm) by pipetting. After drying, the MTP's were infested with L2 larvae (7-12 per well). After an incubation period of 6 days, samples were checked for larval mortality and growth regulation. The following compound gave at least 80% control of Plutella xylostella: A1, A2, A5, A6, A7, A8, A9, A10, A11, A12, A13, A14, A15, A16, A17, A18, A19, A20, A21, A22, A24, A25, A30, A31, A32, A33, A34, A35, A37, A38, A39, A40, A42, A43, A44, A45, A46, A47, A48, A49, A50, A51, A52, A53, A54, A55, A57, A58, A59, A60, A61, A62, B3. Diabrotica balteata (Corn root worm): A 24-well microtiter plate (MTP) with artificial diet was treated with test solutions at an application rate of 200 ppm (concentration in well 18 ppm) by pipetting. After drying, the MTP's were infested with L2 larvae (6-10 per well). After an incubation period of 5 days, samples were checked for larval mortality and growth regulation. The following compound gave at least 80% control of Diabrotica balteata: A1, A2, A5, A6, A7, A10, A11, A12, A13, A14, A15, A16, A17, A18, A19, A21, A22, A24, A25, A30, A31, A32, A33, A34, A35, A38, A39, A40, A42, A43, A44, A45, A46, A47, A48, A49, A50, A59, A60, A61, A62. Thrips tabaci (Onion thrips): Sunflower leaf discs were placed on agar in a 24-well microtiter plate and sprayed with test solutions at an application rate of 200 ppm. After drying, the leaf discs were infested with an […] population of mixed ages. After an incubation period of 7 days, samples were checked for mortality. The following compounds gave at least 80% control of Thrips tabaci: A1, A2, A5, A6, A7, A8, A10, A12, A13, A14, A15, A16, A17, A18, A19, A21, A24, A25, A30, A31, A32, A33, A34, A35, A39, A42, A43, A44, A45, A46, A47, A48, A49, A50, A51, A53, A54, A57, A58, A59, A60, A61, A62. Tetranychus urticae (Two-spotted spider mite): Bean leaf discs on agar in 24-well microtiter plates were sprayed with test solutions at an application rate of 200 ppm. After drying, the leaf discs are infested with mite populations of mixed ages. 8 days later, discs are checked for egg mortality, larval mortality, and adult mortality. The following compound gave at least 80% control of Tetranychus urticae: A1, A2, A4, A5, A6, A7, A8, A10, A11, A12, A13, A14, A15, A16, A17, A18, A19, A20, A21, A22, A30, A31, A32, A33, A34, A35, A39, A40, A41, A42, A43, A44, A45, A46, A47, A48, A49, A50, A51, A53, A54, A55, A57, A59, A60, A61, A62.

The subject of assay [2] is Diabrotica balteata (Corn root worm). The assay can be described thus: Diabrotica balteata larvae test on artificial diet. The conditions noted are these: for effect on mortality, feeding behavior, or growth regulation: same protocol, 200 ppm; for pest or weed control at 200 ppm: 120 h, 200 ppm (concentration in well 18 ppm), artificial diet, L2 larvae, larval mortality and growth regulation after 5 days. The procedure: as §1, §2

Assay [3] has as its system Heliothis virescens (Tobacco budworm). The assay can be described thus: Heliothis virescens egg test on artificial diet. The conditions noted are these: for effect on mortality, feeding behavior, or growth regulation: same protocol, 200 ppm; for pest or weed control at 200 ppm: 96 h, 200 ppm (concentration in well 18 ppm), eggs 0-24 h old on artificial diet, egg mortality, larval mortality, growth regulation after 4 days, read-out: control of Heliothis virescens. As to the method: as §1, §2

Assay [4] has as its system Tetranychus urticae (Two-spotted spider mite). The assay can be described thus: Tetranychus urticae bean leaf disc spray test. The conditions noted are these: for effect on mortality, feeding behavior, or growth regulation: same protocol, 200 ppm; for pest or weed control at 200 ppm: foliar, 192 h, 200 ppm spray on bean leaf discs, mite populations of mixed ages, egg, larval and adult mortality 8 days later, read-out: control of Tetranychus urticae. As to the method:
as §1, §2

Assay [5] deals with Thrips tabaci (Onion thrips). In words: Thrips tabaci sunflower leaf disc spray test. To be noted: for effect on mortality, feeding behavior, or growth regulation: same protocol, 200 ppm; for pest or weed control at 200 ppm: foliar, 168 h, 200 ppm spray on sunflower leaf discs, population of mixed ages, mortality after 7 days. The procedure: as §1, §2

In the case of `CC1(NC(=O)c2cccc3c(C4=NOC(c5cc(Cl)cc(Cl)c5)(C(F)(F)F)C4)cccc23)CSC1` (stereo not drawn) [A36], the “effect on mortality, feeding behavior, or growth regulation” value (shortened to “effect on mortality, feeding behavior”) in assay [1], in assay [2], in assay [3], in assay [4] and in assay [5] was “little or no effect” throughout.

For the compound `Cc1cc(C2=NCC(c3cc(Cl)cc(Cl)c3)(C(F)(F)F)C2)ccc1C(=O)NC1CSC1` (stereo not drawn) [A49], the pest or weed control at 200 ppm in assay [1], in assay [2], in assay [3], in assay [4] and in assay [5] was at least 80% throughout.

In the case of `CC1(NC(=O)c2ccc(C3=NOC(c4cc(Cl)cc(Cl)c4)(C(F)(F)F)C3Br)c3ccccc23)CSC1` (stereo not drawn) [A43], the pest or weed control at 200 ppm in assay [1], in assay [2], in assay [3], in assay [4] and in assay [5] was at least 80% throughout.

For `Cc1cc(C2=NCC(c3cc(Cl)cc(Cl)c3)(C(F)(F)F)C2)ccc1C(=O)NC1(C)CSC1` (stereo not drawn) [A47], the pest or weed control at 200 ppm in assay [1], in assay [2], in assay [3], in assay [4] and in assay [5] was at least 80% throughout.

As for `O=C(NC1CSC1)c1ccc(C2=NOC(c3cc(Cl)cc(Cl)c3)(C(F)(F)F)C2)c2ccccc12` (stereo not drawn) [A2], the pest or weed control at 200 ppm in assay [1], in assay [2], in assay [3], in assay [4] and in assay [5] was at least 80% in each case.

In the case of `Cc1cc(C2=NOC(c3cc(Cl)cc(Cl)c3)(C(F)(F)F)C2Cl)ccc1C(=O)NC1C[S+]([O-])C1` (stereo not drawn) [A34], the pest or weed control at 200 ppm in assay [1], in assay [2], in assay [3], in assay [4] and in assay [5] was at least 80% throughout.

For the compound `Cc1cc(C2=NOC(c3cc(Cl)cc(Cl)c3)(C(F)(F)F)C2Cl)ccc1C(=O)NC1CS(=O)(=O)C1` (stereo not drawn) [A32], the pest or weed control at 200 ppm in assay [1], in assay [2], in assay [3], in assay [4] and in assay [5] was at least 80% in each case.

With `Cc1cc(C2=NOC(c3cc(Cl)cc(Cl)c3)(C(F)(F)F)C2F)ccc1C(=O)NC1C[S+]([O-])C1` (stereo not drawn) [A62], the pest or weed control at 200 ppm in assay [1], in assay [2], in assay [3], in assay [4] and in assay [5] was at least 80% throughout.

With `Cc1cc(C2=NOC(c3cc(Cl)cc(Cl)c3)(C(F)(F)F)C2Br)ccc1C(=O)NC1(C)CSC1` (stereo not drawn) [A5], the pest or weed control at 200 ppm in assay [1], in assay [2], in assay [3], in assay [4] and in assay [5] was at least 80% in each case.

With `Cc1cc(C2=NOC(c3cc(Cl)cc(Cl)c3)(C(F)(F)F)/C2=N/O)ccc1C(=O)NC1(C)CSC1` (stereo not drawn) [A56], the “effect on mortality, feeding behavior” value in assay [1], in assay [2], in assay [3], in assay [4] and in assay [5] was “little or no effect” each time.

Regarding `O=C(NC1C[S+]([O-])C1)c1ccc(C2=NOC(c3cc(Cl)cc(Cl)c3)(C(F)(F)F)C2Br)c2ccccc12` (stereo not drawn) [A44], the pest or weed control at 200 ppm in assay [1], in assay [2], in assay [3], in assay [4] and in assay [5] was at least 80% throughout.

Take `Cc1nc2c(C3=NOC(c4cc(Cl)cc(Cl)c4)(C(F)(F)F)C3)ccc(C(=O)NC3CSC3)c2o1` (stereo not drawn) [A29]: the “effect on mortality, feeding behavior” value in assay [1], in assay [2], in assay [3], in assay [4] and in assay [5] was “little or no effect” in each case.

Consider `Cc1cc(C2=NOC(c3cc(Cl)cc(Cl)c3)(C(F)(F)F)C2Cl)ccc1C(=O)NC1(C)CSC1` (stereo not drawn) [A33], for which the pest or weed control at 200 ppm in assay [1], in assay [2], in assay [3], in assay [4] and in assay [5] was at least 80% each time.

In the case of `Cc1nc2c(C3=NOC(c4cc(Cl)cc(Cl)c4)(C(F)(F)F)C3)ccc(C(=O)NC3C[S+]([O-])C3)c2o1` (stereo not drawn) [A28], the “effect on mortality, feeding behavior” value in assay [1], in assay [2], in assay [3], in assay [4] and in assay [5] was “little or no effect” in each case.

Turning to `Cc1cc(C2=NOC(c3cc(Cl)cc(Cl)c3)(C(F)(F)F)C2F)ccc1C(=O)NC1(C)CSC1` (stereo not drawn) [A60], the pest or weed control at 200 ppm in assay [1], in assay [2], in assay [3], in assay [4] and in assay [5] was at least 80% in each case.
